{
  "source": "patent US20240293413A1",
  "about": "“COMPOUND AND METHOD FOR TREATING CHEMOTHERAPY-RELATED GASTROINTESTINAL SIDE EFFECTS” (ONQUALITY PHARMACEUTICALS CHINA LTD., priority 2021, published 2024)",
  "key": {"[1]": {"test_system": "Chemotherapeutic agent-caused diarrhea models of Balb/c mice", "assay": "Examples 1-229 (Table 3): oral CDK inhibitor, relief of diarrhea caused by a chemotherapeutic agent;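 note: percent of treated mice whose diarrhea grade fell below chemotherapy-group average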", "format": "in vivo"}, "[2]": {"test_system": "constipation caused by a chemotherapeutic agent in Balb/c mice", "assay": "Examples 406-443 (Table 8): various administration modes of the CDK inhibitor, relief of constipation caused by a chemotherapeutic agent;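 note: percent of treated mice relieved versus chemotherapy group by feces reduction rate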", "format": "in vivo", "settings": "Example 406; Doxorubicin (Dox) intraperitoneal injection 12 mg/kg single; CDK inhibitor intravenous injection 150 mg/kg single, 0.5 h before; cycle 8 days", "excerpt": "Balb/c mice were fed for 1 week, and then divided into groups. The experiment was divided into a control group, a chemotherapeutic agent group, CDK inhibitor groups (including an oral administration group of a CDK inhibitor, an intravenous injection group of a CDK inhibitor, an intraperitoneal injection group of a CDK inhibitor, an intramuscular injection group of a CDK inhibitor, a local administration group of a CDK inhibitor), each of which comprised 10 mice, to perform the administration experiment, for which the administration dosage, mode, time and frequency were shown in Table 8. The control group: being administered with the same solvent as that used in the CDK inhibitor group (the time and mode were shown in Table 8), and then being injected/intragastrically administered with the same solvent as that used in the chemotherapeutic agent group (the administration mode was shown in Table 8): the chemotherapeutic agent group: being administered with the same solvent as that used in the CDK inhibitor group (the time and mode were shown in Table 8), and then being injected/intragastrically administered with the chemotherapeutic agent (the type, administration mode and dosage were shown in Table 8): the oral administration group of the CDK inhibitor: being intragastrically administered with the CDK inhibitor (the time was shown in Table 8), and then being administered with the chemotherapeutic agent (the mode and dosage were shown in Table 8): the intravenous injection group of the CDK inhibitor: being injected with the CDK inhibitor through tail vein (the time was shown in Table 8), and then being administered with the chemotherapeutic agent (the mode and dosage were shown in Table 8): the intraperitoneal injection group of the CDK inhibitor: being intraperitoneally injected with the CDK inhibitor (the time was shown in Table 8), and then being administered with the chemotherapeutic agent (the mode and dosage were shown in Table 8): the intramuscular injection group of the CDK inhibitor: being intramuscularly injected with the CDK inhibitor (the time was shown in Table 8), and then being administered with the chemotherapeutic agent (the mode and dosage were shown in Table 8); and the local administration group of the CDK inhibitor: the hair on the abdomen of mice was shaved (about 2 cm*2 cm), being applied with the CDK inhibitor (the time was shown in Table 8), and then being administered with the chemotherapeutic agent (the mode and dosage were shown in Table 8).\nFeces reduction rate (%)=(the control group−the chemotherapeutic agent group or the CDK inhibitor group)/the control group*100%\nThe feces amount of mice within 3 hours was observed and recorded every day."}},
  "data": [
    {"smiles": "CC(=O)c1c(C)c2cnc(Nc3ccc(N4CCNCC4)cn3)nc2n(C2CCCC2)c1=O", "note": "[Palbociclib]", "values": [
      {"measurement": "Relative remission rate (%)", "setting": "[1]; Example 1, Fluorouracil (5-Fu) intraperitoneal injection 125 mg/kg single, CDK inhibitor oral 150 mg/kg single 0.5 h before, cycle 10 days", "value": 20, "unit": "%"},
      {"measurement": "Relative remission rate (%)", "setting": "[1]; Example 2, Fluorouracil (5-Fu) intraperitoneal injection 125 mg/kg single, CDK inhibitor oral 150 mg/kg single 1 h before, cycle 10 days", "value": 20, "unit": "%"},
      {"measurement": "Relative remission rate (%)", "setting": "[1]; Example 3, Fluorouracil (5-Fu) intraperitoneal injection 125 mg/kg single, CDK inhibitor oral 150 mg/kg single 2 h before, cycle 10 days", "value": 30, "unit": "%"},
      {"measurement": "Relative remission rate (%)", "setting": "[1]; Example 4, Fluorouracil (5-Fu) intraperitoneal injection 125 mg/kg single, CDK inhibitor oral 150 mg/kg single 3 h before, cycle 10 days", "value": 40, "unit": "%"},
      {"measurement": "Relative remission rate (%)", "setting": "[1]; Example 5, Fluorouracil (5-Fu) intraperitoneal injection 125 mg/kg single, CDK inhibitor oral 150 mg/kg single 4 h before, cycle 10 days", "value": 40, "unit": "%"},
      {"measurement": "Relative remission rate (%)", "setting": "[1]; Example 6, Fluorouracil (5-Fu) intraperitoneal injection 125 mg/kg single, CDK inhibitor oral 150 mg/kg single 5 h before, cycle 10 days", "value": 50, "unit": "%"},
      {"measurement": "Relative remission rate (%)", "setting": "[1]; Example 7, Fluorouracil (5-Fu) intraperitoneal injection 125 mg/kg single, CDK inhibitor oral 150 mg/kg single 6 h before, cycle 10 days", "value": 50, "unit": "%"},
      {"measurement": "Relative remission rate (%)", "setting": "[1]; Example 8, Fluorouracil (5-Fu) intraperitoneal injection 125 mg/kg single, CDK inhibitor oral 150 mg/kg single 7 h before, cycle 10 days", "value": 60, "unit": "%"},
      {"measurement": "Relative remission rate (%)", "setting": "[1]; Example 9, Fluorouracil (5-Fu) intraperitoneal injection 125 mg/kg single, CDK inhibitor oral 150 mg/kg single 8 h before, cycle 10 days", "value": 60, "unit": "%"},
      {"measurement": "Relative remission rate (%)", "setting": "[1]; Example 10, Fluorouracil (5-Fu) intraperitoneal injection 125 mg/kg single, CDK inhibitor oral 150 mg/kg single 9 h before, cycle 10 days", "value": 50, "unit": "%"},
      {"measurement": "Relative remission rate (%)", "setting": "[1]; Example 11, Fluorouracil (5-Fu) intraperitoneal injection 125 mg/kg single, CDK inhibitor oral 150 mg/kg single 10 h before, cycle 10 days", "value": 60, "unit": "%"},
      {"measurement": "Relative remission rate (%)", "setting": "[1]; Example 12, Fluorouracil (5-Fu) intraperitoneal injection 125 mg/kg single, CDK inhibitor oral 150 mg/kg single 11 h before, cycle 10 days", "value": 70, "unit": "%"},
      {"measurement": "Relative remission rate (%)", "setting": "[1]; Example 13, Fluorouracil (5-Fu) intraperitoneal injection 125 mg/kg single, CDK inhibitor oral 150 mg/kg single 12 h before, cycle 10 days", "value": 80, "unit": "%"},
      {"measurement": "Relative remission rate (%)", "setting": "[1]; Example 14, Fluorouracil (5-Fu) intraperitoneal injection 125 mg/kg single, CDK inhibitor oral 12.5 mg/kg single 13 h before, cycle 10 days", "value": 40, "unit": "%"},
      {"measurement": "Relative remission rate (%)", "setting": "[1]; Example 15, Fluorouracil (5-Fu) intraperitoneal injection 125 mg/kg single, CDK inhibitor oral 25 mg/kg single 13 h before, cycle 10 days", "value": 80, "unit": "%"},
      {"measurement": "Relative remission rate (%)", "setting": "[1]; Example 16, Fluorouracil (5-Fu) intraperitoneal injection 125 mg/kg single, CDK inhibitor oral 50 mg/kg single 13 h before, cycle 10 days", "value": 60, "unit": "%"},
      {"measurement": "Relative remission rate (%)", "setting": "[1]; Example 17, Fluorouracil (5-Fu) intraperitoneal injection 125 mg/kg single, CDK inhibitor oral 100 mg/kg single 13 h before, cycle 10 days", "value": 80, "unit": "%"},
      {"measurement": "Relative remission rate (%)", "setting": "[1]; Example 18, Fluorouracil (5-Fu) intraperitoneal injection 125 mg/kg single, CDK inhibitor oral 150 mg/kg single 13 h before, cycle 10 days", "value": 80, "unit": "%"},
      {"measurement": "Relative remission rate (%)", "setting": "[1]; Example 19, Fluorouracil (5-Fu) intraperitoneal injection 125 mg/kg single, CDK inhibitor oral 250 mg/kg single 13 h before, cycle 10 days", "value": 60, "unit": "%"},
      {"measurement": "Relative remission rate (%)", "setting": "[1]; Example 20, Fluorouracil (5-Fu) intraperitoneal injection 125 mg/kg single, CDK inhibitor oral 150 mg/kg single 14 h before, cycle 10 days", "value": 70, "unit": "%"},
      {"measurement": "Relative remission rate (%)", "setting": "[1]; Example 21, Fluorouracil (5-Fu) intraperitoneal injection 125 mg/kg single, CDK inhibitor oral 150 mg/kg single 16 h before, cycle 10 days", "value": 60, "unit": "%"},
      {"measurement": "Relative remission rate (%)", "setting": "[1]; Example 22, Fluorouracil (5-Fu) intraperitoneal injection 125 mg/kg single, CDK inhibitor oral 150 mg/kg single 18 h before, cycle 10 days", "value": 60, "unit": "%"},
      {"measurement": "Relative remission rate (%)", "setting": "[1]; Example 23, Fluorouracil (5-Fu) intraperitoneal injection 125 mg/kg single, CDK inhibitor oral 150 mg/kg single 20 h before, cycle 10 days", "value": 50, "unit": "%"},
      {"measurement": "Relative remission rate (%)", "setting": "[1]; Example 24, Fluorouracil (5-Fu) intraperitoneal injection 125 mg/kg single, CDK inhibitor oral 150 mg/kg single 22 h before, cycle 10 days", "value": 40, "unit": "%"},
      {"measurement": "Relative remission rate (%)", "setting": "[1]; Example 25, Fluorouracil (5-Fu) intraperitoneal injection 125 mg/kg single, CDK inhibitor oral 150 mg/kg single 24 h before, cycle 10 days", "value": 40, "unit": "%"},
      {"measurement": "Relative remission rate (%)", "setting": "[1]; Example 26, Fluorouracil (5-Fu) intraperitoneal injection 125 mg/kg single, CDK inhibitor oral 150 mg/kg single 48 h before, cycle 10 days", "value": 0, "unit": "%"},
      {"measurement": "Relative remission rate (%)", "setting": "[1]; Example 44, Fluorouracil (5-Fu) oral administration 250 mg/kg single, CDK inhibitor oral 125 mg/kg single 4 h before, cycle 10 days", "value": 60, "unit": "%"},
      {"measurement": "Relative remission rate (%)", "setting": "[1]; Example 88, Oxaliplatin intravenous injection 17.5 mg/kg single, CDK inhibitor oral 150 mg/kg single 6 h before, cycle 8 days", "value": 50, "unit": "%"},
      {"measurement": "Relative remission rate (%)", "setting": "[1]; Example 129, Irinotecan (CPT-11) intravenous injection 200 mg/kg single, CDK inhibitor oral 200 mg/kg single 14 h before, cycle 7 days", "value": 60, "unit": "%"},
      {"measurement": "Relative remission rate (%)", "setting": "[1]; Example 166, Docetaxel (DTX) intramuscular injection 20 mg/kg single, CDK inhibitor oral 150 mg/kg single 5 h before, cycle 8 days", "value": 80, "unit": "%"},
      {"measurement": "Relative remission rate (%)", "setting": "[1]; Example 228, Etoposide 60 mg/kg and Carboplatin 5 mg/kg intraperitoneal injection single, CDK inhibitor oral 150 mg/kg single, 12 h before, 10 days", "value": 60, "unit": "%"},
      {"measurement": "Relative remission rate of other administration mode", "setting": "[2]", "value": 10, "unit": "%"}
    ]}
  ]
}
